Assay results taken from US7208520B2, “Crystals of hydroxynorephedrine derivative” (Kissei Pharmaceutical Co., Ltd., priority 2001, dated 2007).

Experiment: Stability test: storage at 60° C., residual percentage by HPLC and changes in appearance
Format: physicochemical
Conditions: for Residual percentage: determined by HPLC
Experimental: Stability test was carried out under a condition of storage at 60° C. for crystalline form A obtained in Example 2, crystalline form B obtained in Example 3 and the amorphous form of compound (II) obtained in Reference Example 1. The residual percentage of test substances was determined by HPLC, and the changes in appearance were observed.

[1] = storage at 60° C., 7 days, hydrochloride

Row | Appearance (storage at 60° C., 7 days) | Residual percentage (storage at 60° C., 7 days) | Appearance (storage period: Initial) | Residual percentage (storage period: Initial) | Changes in appearance (storage at 60° C.) | Residual percentage [1] | SMILES
1 | tannish | 40.0 | Color- | 100 |  |  | CCOC(=O)COc1cc(C)c(CCN[C@@H](C)[C@H](O)c2ccc(O)cc2)cc1C [compound 1, Ethyl (−)-2-[4-[2-[[(1S,2R)-2-hydroxy-2-(4-hydroxyphenyl)-1-methyethyl]amino]ethyl]-2,5-dimethylphenoxy]acetate, reference compound]
2 | white |  | white | 100 | no changes in appearance | 99.9 | CCOC(=O)COc1cc(C)c(CCN[C@@H](C)[C@H](O)c2ccc(O)cc2)cc1C.Cl [Example 3, Crystalline form B of ethyl (−)-2-[4-[2-[[(1S,2R)-2-hydroxy-2-(4-hydroxyphenyl)-1-methyethyl]amino]ethyl]-2,5-dimethylphenoxy]acetate hydrochloride]
3 | white |  | white | 100 | no changes in appearance | 100 | CCOC(=O)COc1cc(C)c(CCN[C@@H](C)[C@H](O)c2ccc(O)cc2)cc1C.Cl [Example 2, Crystalline form A of ethyl (−)-2-[4-[2-[[(1S,2R)-2-hydroxy-2-(4-hydroxyphenyl)-1-methyethyl]amino]ethyl]-2,5-dimethylphenoxy]acetate hydrochloride]
